Entries after “also recorded” stand apart in the source; their conditions may differ. Like-named read-outs stand apart in the source and are kept apart here.
Columns and labels:
[1] = test system: IL-1β production by stimulated J774.A1 macrophages; experiment: IL-1β production by LPS + IFN-γ stimulated J774.A1 macrophages (ELISA); format: cell-based, murine; settings: compounds at 62.5 μM, Dexa 40 μM, 24 h, vs stimulated untreated cells, p < 0.05
Protocol: (§1) Cells were then stimulated with LPS (500 ng/mL) and IFN-γ (5 ng/mL) in the presence of either the test compounds at different concentrations (3.9–250 μM), the medium alone, or dexamethasone (40 μM, reference drug) and further incubated at 37 °C. Cell-free supernatants were collected 24 h after incubation for IL-1β, IL-6, and nitrite quantification. Cytokine concentrations in the supernatants of J774.A1 cultures were determined by enzyme-linked immunosorbent assay (ELISA) using the DuoSet kit (R&D Systems, Minneapolis, MN, USA), according to the manufacturer’s instructions. Results were expressed as picograms per milliliter (pg/mL) of IL-1β or IL-6. Quantification of nitrite as an indicator of nitric oxide production was performed using the Griess method. Three independent experiments were performed. −

[2] = test system: nitric oxide production by stimulated J774.A1 macrophages; experiment: Nitric oxide production by LPS + IFN-γ stimulated J774.A1 macrophages (nitrite, Griess method); format: cell-based, murine; settings: for IC50 / Emax: Mus musculus
Protocol: as §1, with “For cytokine and nitric oxide evaluations, J774.A1 cells were seeded in 96-well tissue culture plates at 2 × 10^5 cells per well in DMEM supplemented with 10% FBS and 50 μg/mL gentamicin and incubated for 2 h at 37 °C in a 5% CO2 atmosphere, as previously described. Cells” for “Cells”

[3] = test system: IL-6 production by stimulated J774.A1 macrophages; experiment: IL-6 production by LPS + IFN-γ stimulated J774.A1 macrophages (ELISA); format: cell-based, murine; settings: compounds at 62.5 μM, Dexa 40 μM, 24 h, vs stimulated untreated cells, p < 0.05
Protocol: as §1

[4] = test system: murine macrophage-like J774.A1 cells; experiment: Cytotoxicity to J774.A1 macrophages (Alamar Blue); settings: concentrations up to 500 μM (compounds 7 and 13 up to 250 μM)
Protocol: Cells were incubated for 72 h at 37 °C in a 5% CO2 atmosphere, as previously described. They were then stimulated with LPS (500 ng/mL, Sigma Chemical Co., St. Louis, MO, USA) and IFN-γ (5 ng/mL, Sigma). Compounds were added to the medium at eight concentrations ranging from 1.9 to 500 μM, in triplicate, and incubated for 24 h. Subsequently, 20 μL per well of Alamar Blue (Invitrogen, Carlsbad, CA, USA) was added to the plates for 6 h. Compounds 7, 11, and 13 were evaluated only up to a maximum concentration of 250 μM due to the limited amount of purified material available for testing. Colorimetric readings were performed at 570 and 600 nm. Triton X-100 (5%) was used as the positive control.

[5] = J774.A1, 24 h, read-out: IC50, half maximal inhibitory concentration, NO production, J774.A1 macrophages stimulated with LPS (500 ng/mL) + IFN-γ (5 ng/mL), 24 h, nitrite by Griess
[6] = J774.A1, 24 h, read-out: efficacy: maximum effect (% of the maximum possible effect), inhibition of NO production, J774.A1 macrophages stimulated with LPS + IFN-γ, 24 h
[7] = J774.A1, read-out: IC50 (in Figure 8 panels), nitric oxide production, Figure 8, no unit in the boxes, μM only in axis labels, LPS + IFN-γ stimulated J774.A1

COC1CC(OC2C(O)CC(OC3CCC4(C)C(CCC5(O)C4CC(OC(=O)C=Cc4ccccc4)C4(C)C(C(C)O)CCC54O)C3)OC2C)OC(C)C1OC1OC(C)C(O)C(OC)C1O [Compound 12, 12-O-cinnamoyl-(20S)-5,6,17-trihydrosarcostin-3-O-β-D-6-deoxy-3-O-methyl-allopyranosyl-(1 → 4)-β-D-oleandropyranosyl-(1 → 4)-β-D-digitoxopyranoside]
production of IL-1β (in words) [1]: did not reduce | IC50 [2, 5]: > 100 µM | Emax [2, 6]: 62%

COC1CC(OC2CCC3(C)C(CCC4(O)C3CC(OC(C)=O)C3(C)C(C(C)O)CCC43O)C2)OC(C)C1OC1CC(OC)C(OC2OC(C)C(O)C(OC)C2O)C(C)O1 [Compound 16, 12-O-acetyl-(20S)-5,6,17-trihydrosarcostin-3-O-β-D-6-deoxy-3-O-methyl-allopyranosyl-(1 → 4)-β-D-oleandropyranosyl-(1 → 4)-β-D-cymaropyranoside]
production of IL-1β (in words) [1]: significant reduction | production of IL-6 (in words) [3]: reduced IL-1β production but not IL-6 | cytotoxic effects in J774 macrophages (in words) [4]: only mild cytotoxicity at the highest concentrations | IC50 [2, 5]: 40 to 70 µM | Emax [2, 6]: < 50%

COC1CC(OC2C(C)OC(OC3CCC4(C)C(CCC5(O)C4CC(OC(=O)C=Cc4ccccc4)C4(C)C(O)(C(C)OC(=O)c6cccnc6)CCC54O)C3)CC2OC(C)=O)OC(C)C1OC1OC(C)C(O)C(OC)C1O [Compound 3, 12-O-cinnamoyl-20-O-nicotinoyl-(20R)-5,6-dihydrosarcostin-3-O-β-D-6-deoxy-3-O-methyl-allopyranosyl-(1 → 4)-β-D-oleandropyranosyl-(1 → 4)-β-D-3′-O-acetyl-cymaropyranoside]
production of IL-1β (in words) [1]: significant reduction; also recorded: comparable to those of Dexa | production of IL-6 (in words) [3]: comparable to those of Dexa | cytotoxic effects in J774 macrophages (in words) [4]: did not induce cytotoxic effects | efficacy: maximum effect (% of the maximum possible effect), inhibition of NO production ([2]; J774.A1 macrophages stimulated with LPS + IFN-γ, 24 h): 68.0% | IC50 [2, 5]: 29.1 µM | Emax [2, 6]: 71.8% | IC50 [2, 7]: 29.1 µM

COC1CC(OC2CCC3(C)C(CCC4(O)C3CC(OC(C)=O)C3(C)C(C(C)OC(=O)c5ccccc5)CCC43O)C2)OC(C)C1OC1CC(OC)C(OC2OC(C)C(O)C(OC)C2O)C(C)O1 [Compound 18, 12-O-acetyl-20-O-benzoyl-(20R)-5,6,17-trihydrosarcostin-3-O-β-D-6-deoxy-3-O-methyl-allopyranosyl-(1 → 4)-β-D-oleandropyranosyl-(1 → 4)-β-D-cymaropyranoside]
production of IL-1β (in words) [1]: significant reduction | IC50 [2, 5]: 66.2 µM | Emax [2, 6]: < 50% | IC50 [2, 7]: 66.2 µM

COC1CC(OC2C(C)OC(OC3CCC4(C)C(CCC5(O)C4CC(OC(=O)C=Cc4ccccc4)C4(C)C(C(C)O)CCC54O)C3)CC2OC(C)=O)OC(C)C1OC1OC(C)C(O)C(OC)C1O [Compound 13, 12-O-cinnamoyl-(20S)-5,6,17-trihydrosarcostin-3-O-β-D-6-deoxy-3-O-methyl-allopyranosyl-(1 → 4)-β-D-oleandropyranosyl-(1 → 4)-β-D-3′-O-acetyl-cymaropyranoside]
production of IL-1β (in words) [1]: significant reduction | cytotoxic effects in J774 macrophages (in words) [4]: did not exhibit cytotoxicity at the concentrations tested | IC50 [2, 5]: 42.4 µM | Emax [2, 6]: 59.3% | IC50 [2, 7]: 42.4 µM

COC1CC(OC2CCC3(C)C(CCC4(O)C3CC(OC(=O)C=Cc3ccccc3)C3(C)C(C(C)O)CCC43O)C2)OC(C)C1OC1CC(OC)C(OC2OC(C)C(OC3OC(CO)C(OC4OC(CO)C(O)C(O)C4O)C(O)C3O)C(OC)C2O)C(C)O1 [Compound 6, 12-O-cinnamoyl-(20S)-5,6,17-trihydrosarcostin-3-O-β-D-glucopyranosyl-(1 → 4)-β-D glucopyranosyl-(1 → 4)-β-D-6-deoxy-3-O-methyl-allopyranosyl-(1 → 4)-β-D oleandropyranosyl-(1 → 4)-β-D-cymaropyranoside]
production of IL-1β (in words) [1]: did not reduce | cytotoxic effects in J774 macrophages (in words) [4]: did not induce cytotoxic effects | Emax [2, 6]: < 50%

C[C@@H]1C[C@H]2[C@@H]3CCC4=CC(=O)C=C[C@]4(C)[C@@]3(F)[C@@H](O)C[C@]2(C)[C@@]1(O)C(=O)CO [Dexa, dexamethasone, reference compound]
IC50 ([2]; J774.A1, 24 h, J774.A1 macrophages stimulated with LPS (500 ng/mL) + IFN-γ (5 ng/mL), 24 h, nitrite by Griess, read-out: IC50, half maximal inhibitory concentration, NO production): 4.8 µM | Emax ([2]; J774.A1, 24 h, J774.A1 macrophages stimulated with LPS + IFN-γ, 24 h, read-out: efficacy: maximum effect (% of the maximum possible effect), inhibition of NO production): 51.6%

COC1CC(OC2C(C)OC(OC3CCC4(C)C(CCC5(O)C4CC(OC(=O)C=Cc4ccccc4)C4(C)C(C(C)O)CCC54O)C3)CC2OC(C)=O)OC(C)C1OC1OC(C)C(OC2OC(CO)C(OC3OC(CO)C(O)C(O)C3O)C(O)C2O)C(OC)C1O [Compound 7, 12-O-cinnamoyl-(20S)-5,6,17-trihydrosarcostin-3-O-β-D-glucopyranosyl-(1 → 4)-β-D-glucopyranosyl-(1 → 4)-β-D-6-deoxy-3-O-methyl-allopyranosyl-(1 → 4)-β-D-oleandropyranosyl-(1 → 4)-β-D-3′-O-acetyl-cymaropyranoside]
production of IL-1β (in words) [1]: did not reduce | cytotoxic effects in J774 macrophages (in words) [4]: did not exhibit cytotoxicity at the concentrations tested | IC50 [2, 5]: > 100 µM | Emax [2, 6]: < 50%

COC1CC(OC2CCC3(C)C(=CCC4(O)C3CC(OC(=O)C=Cc3ccccc3)C3(C)C(C(C)O)CCC43O)C2)OC(C)C1OC1CC(OC)C(OC2OC(C)C(O)C(OC)C2O)C(C)O1 [Compound 11, 12-O-cinnamoyl-(20S)-17-hydrosarcostin-3-O-β-D-6-deoxy-3-O-methyl-allopyranosyl-(1 → 4)-β-D-oleandropyranosyl-(1 → 4)-β-D-cymaropyranoside]
production of IL-1β (in words) [1]: significant reduction | cytotoxic effects in J774 macrophages (in words) [4]: most cytotoxic | IC50 [2, 5]: 47.3 µM | Emax [2, 6]: 51.8% | IC50 [2, 7]: 47.3 µM

COC1CC(OC2CCC3(C)C(CCC4(O)C3CC(OC(=O)C=Cc3ccccc3)C3(C)C(C(C)O)CCC43O)C2)OC(C)C1OC1CC(OC)C(OC2OC(C)C(O)C(OC)C2O)C(C)O1 [Compound 15, 12-O-cinnamoyl-(20S)-5,6,17-trihydrosarcostin-3-O-β-D-6-deoxy-3-O-methyl-allopyranosyl-(1 → 4)-β-D-oleandropyranosyl-(1 → 4)-β-D-cymaropyranoside]
production of IL-1β (in words) [1]: significant reduction | cytotoxic effects in J774 macrophages (in words) [4]: most cytotoxic | IC50 [2, 5]: 33.7 µM | Emax [2, 6]: 62.9% | IC50 [2, 7]: 33.8 µM

COC1CC(OC2C(C)OC(OC3CCC4(C)C(CCC5(O)C4CC(OC(C)=O)C4(C)C(C(C)OC(=O)c6ccccc6)CCC54O)C3)CC2OC(C)=O)OC(C)C1OC1OC(C)C(O)C(OC)C1O [Compound 17, 12-O-acetyl-20-O-benzoyl-(20R)-5,6,17-trihydrosarcostin-3-O-β-D-6-deoxy-3-O-methyl-allopyranosyl-(1 → 4)-β-D-oleandropyranosyl-(1 → 4)-β-D-3′-O-acetyl-cymaropyranoside]
production of IL-1β (in words) [1]: significant reduction | cytotoxic effects in J774 macrophages (in words) [4]: only mild cytotoxicity at the highest concentrations | IC50 [2, 5]: 46.3 µM | Emax [2, 6]: < 50% | IC50 [2, 7]: 46.3 µM
